The results in this text go back to patent EP0559700B1, “NOVEL PILOCARPINE DERIVATIVES AND PROCESS FOR THEIR PREPARATION” (Santen Oy, priority 1990, dated 1992).

Series [1] in a line: Lipophilicity: partition coefficient (octanol-buffer) and capacity factor by RP-HPLC. The following applies: for chromatographic logP / Capacity factor (22°C) k': rp-hplc; for chromatographic logP: reverse phase HPLC, 22°C, read-out: Capacity factor (22°C) k' (converted). It counts as physicochemical. The source says:
The lipophilicity of the compounds were studied by determining the partition coefficients (P) of the compounds at a pH of 7.40. The measurements were made either in an octanol-buffer mixture by determining the concentration of the compound to be studied in the buffer phase by HPLC. The partition coefficients of the very lipophilic compounds were, however, determined by reverse phase (RP) liquid chromatography (HPLC) from the retention time (Beckmann 116 pump and 166 UV detector; Marathon autom. sample feeder). […] From the results it can be seen that the compounds of the invention are considerably more lipophilic than the pilocarpine.

Series [2] can be described thus: Stability of the compounds: buffer hydrolysis (half-times, shelf-life). It counts as physicochemical. How it is done: The stability of the test compounds were tested with buffer hydrolyses. The ionic strength (µ) of the buffers was 0.5, the pH-values used 4.2, 6.0, 7.4 and 9.0 and the temperatures used 37°C, 50 °C, 60 °C and 70 °C.
The half-times T½ calculated on basis of the degradation constant k obtained for each studied compound (T½=0.693/k; k = 2.303 x kk, wherein kk is the angular coefficient of the plot which illustrates the logarithm of the remaining ester as a function of time) in a buffer solution of said pH, are indicated in the Table I below, which values refer to half-times at 37°C.
The storage stability of the derivatives under different storage conditions may be estimated by determining the degradation constants at different temperatures and calculating the degradation constant k at the desired temperature from the equation of the plot corresponding to the Arrhenius equation (1), wherein log k is given as a function of [1/T]. Log k = Log A -(Ea)/(2.303R)x(1)/(T) [formula]
From the degradation constant (k) obtained at the desired temperature the shelf-life-time t10% (t10% = 0.104/k) which indicates the time during which 10% of the drug has degraded may be calculated. By way of example it may be mentioned that the t10%-time of O,O'-dipropionyl (1,4-xylylene) bispilocarpate at 4 °C is almost 500 days.

Series [3] in a line: pKa-value determination by titration in a water-ethanol mixture (50%-50%). It counts as physicochemical. The following applies: water-ethanol 50:50; titration in water-ethanol mixture (50%-50%).
Series [4] in a line: Enzyme hydrolysis in plasma/buffer pH 7.4 mixture (80%-20%). It counts as in vitro ADME. The settings on record: for half-life: 80% plasma/buffer. The procedure: The half-times of enzyme hydrolysis of the novel bispilocarpates according to the invention and of known pilocarpic acid diesters were determined in a plasma/buffer pH 7.4-mixture (80%-20%) at 37°C. The degradation constants (k) for the compounds tested and determined from the plot showing the logarithm of remaining diester as a function of time and the half-lives T½ are shown in the Table II below. From the results it may be seen that in […] the stable test compound degrades under the influence of an enzyme (esterase) to a O,O'-dihydrogen bispilocarpate intermediate, which spontaneously degrades at pH 7.40 to pilocarpine. Consequently the effect of the bispilocarpate intermediate on the rate of formation of pilocarpine is very significant. The formation of pilocarpine was almost complete irrespective of the epimerization possibility of the intermediate. The amount of isopilocarpine formed varied from 0 to 10%, as also the pilocarpine formed epimerized, if the duration of hydrolysis was very long.

[5] abbreviates: buffer pH 6.00, ionic strength 0.5, 37°C, read-out: Half-times in buffers at 37°C, T½, pH 6.00 (converted).
Where [6] appears, read: buffer pH 9.00, ionic strength 0.5, 37°C, read-out: Half-times in buffers at 37°C, T½, pH 9.00 (converted).
Setting [7] is: pH 4.2, buffer pH 4.20, ionic strength 0.5, 37°C, read-out: Half-times in buffers at 37°C, T½, pH 4.20 (converted).
Where [8] appears, read: pH 7.4, buffer pH 7.40, ionic strength 0.5, 37°C, read-out: Half-times in buffers at 37°C, T½, pH 7.40 (converted).
Where [9] appears, read: determined from the equation log k'= 0.182 Log P - 0.4086 (RP-HPLC retention).
Setting [10] is: plasma/buffer pH 7.4 (80%-20%), 37°C, read-out: half-times (T½) in plasma (80%), 37°C.
Setting [11] is: plasma/buffer pH 7.4 (80%-20%), 37°C.

As a reminder, the pKa is the negative logarithm of the acid dissociation constant. As to `CC[C@H](C(=O)OCc1ccc(COC(=O)[C@@H](CC)[C@H](CO)Cc2cncn2C)cc1)[C@H](CO)Cc1cncn1C` [Example 1, O,O'-Dihydrogen (1,4-xylylene) bispilocarpate], in series [1], the chromatographic logP was -0.0915. Besides, the half-life in series [2] (setting [5]) was 2.28 h; in series [2] (setting [6]), 0.0317 h; in series [2] (setting [7]), 37.6 h; in series [2] (setting [8]), 0.3 h. The pKa in series [3] was 6.25.

On to `CC[C@H](C(=O)OCc1cccc(COC(=O)[C@@H](CC)[C@H](CO)Cc2cncn2C)c1)[C@H](CO)Cc1cncn1C` [Example 2, O,O'-Dihydrogen (1,3-xylylene) bispilocarpate], for which the chromatographic logP in series [1] was -0.0814. In addition, the half-life in series [2] (setting [5]) was 2.78 h; in series [2] (setting [6]), 0.0183 h; in series [2] (setting [7]), 48.8 h; in series [2] (setting [8]), 0.317 h. In addition, the pKa in series [3] was found to be 6.3.

Consider `CC[C@H](C(=O)OCc1ccccc1COC(=O)[C@@H](CC)[C@H](CO)Cc1cncn1C)[C@H](CO)Cc1cncn1C` [Example 3, O,O'-Dihydrogen (1,2-xylylene) bispilocarpate], for which the chromatographic logP in series [1] is -0.0814. For the same compound, the half-life in series [2] (setting [5]) is 3.35 h; in series [2] (setting [6]), 0.0233 h; in series [2] (setting [7]), 20.2 h; in series [2] (setting [8]), 0.417 h. For the same compound, the pKa in series [3] stood at 6.3.

Turning to `CC[C@H](C(=O)OCCCCCCCOC(=O)[C@@H](CC)[C@H](CO)Cc1cncn1C)[C@H](CO)Cc1cncn1C` [Example 4, O,O'-Dihydrogen (1,7-heptylene) bispilocarpate], in series [1], the chromatographic logP was 0.0518. Moreover, the half-life in series [2] (setting [5]) is 29.9 h; in series [2] (setting [6]) it was 0.3 h; in series [2] (setting [7]), 81.8 h; in series [2] (setting [8]), 3.35 h. The pKa in series [3] is 6.3.

Consider `CC[C@H](C(=O)OCCCCCCOC(=O)[C@@H](CC)[C@H](CO)Cc1cncn1C)[C@H](CO)Cc1cncn1C` [Example 5, O,O'-Dihydrogen (1,6-hexylene) bispilocarpate], for which the chromatographic logP in series [1] was -0.0494. Moreover, the half-life in series [2] (setting [5]) was 25.1 h; in series [2] (setting [6]), 0.233 h; in series [2] (setting [7]), 62.6 h; in series [2] (setting [8]), 2.5 h. Further, the pKa in series [3] was 6.3.

`CC[C@H](C(=O)OCCCCCOC(=O)[C@@H](CC)[C@H](CO)Cc1cncn1C)[C@H](CO)Cc1cncn1C` [Example 6, O,O'-Dihydrogen (1,5-pentylene) bispilocarpate]: in series [1], the chromatographic logP was -0.123. The half-life in series [2] (setting [5]) is 24.6 h; in series [2] (setting [6]), 0.233 h; in series [2] (setting [7]) it was 73 h; in series [2] (setting [8]), 2.08 h. Further, the pKa in series [3] came to 6.3.

Consider `CC[C@H](C(=O)OCCCCOC(=O)[C@@H](CC)[C@H](CO)Cc1cncn1C)[C@H](CO)Cc1cncn1C` [Example 7, O,O'-Dihydrogen (1,4-butylene) bispilocarpate], for which the chromatographic logP in series [1] was -0.182. The half-life in series [2] (setting [5]) is 18.9 h; in series [2] (setting [6]) it was 0.167 h; in series [2] (setting [7]) it was 120 h; in series [2] (setting [8]), 2.63 h. Besides, in series [3], the pKa worked out at 6.35.

For the compound `CC[C@H](C(=O)OCCCOC(=O)[C@@H](CC)[C@H](CO)Cc1cncn1C)[C@H](CO)Cc1cncn1C` [Example 8, O,O' -Dihydrogen (1,3-propylene) bispilocarpate], the chromatographic logP in series [1] was -0.212. In addition, the half-life in series [2] (setting [5]) is 10.3 h; in series [2] (setting [6]) it was 0.0667 h; in series [2] (setting [7]) it was 67.3 h; in series [2] (setting [8]), 1.2 h. Also, in series [3], the pKa is 6.4.

In the case of `CC[C@H](C(=O)OCc1ccc(COC(=O)[C@@H](CC)[C@H](COC(=O)c2ccccc2)Cc2cncn2C)cc1)[C@H](COC(=O)c1ccccc1)Cc1cncn1C` [Example 14, O,O'-Dibenzoyl (1,4-xylylene) bispilocarpate], the “Partition coefficient log P” value in series [1] (setting [9]) is reported as 6.4929^2. Also, the chromatographic logP in series [1] is 0.773. In addition, the half-life is 8 h in series [2] (setting [6]) and 1.57 h in series [4] (setting [10]). Moreover, in series [4] (setting [11]), the “Degradation coefficient (k) in plasma (80%), 37°C” value amounted to 0.00737 min⁻¹. In addition, in series [3], the pKa worked out at 5.8.

Take `CC[C@H](C(=O)OCc1ccccc1)[C@H](COC(=O)CCCCC(=O)OC[C@H](Cc1cncn1C)[C@H](CC)C(=O)OCc1ccccc1)Cc1cncn1C` [Example 15, O,O'-Adipoyl (dibenzyl) bispilocarpate]: the “Partition coefficient log P” value in series [1] (pH 7.4) is reported as 5.8242^2. For the same compound, the “Capacity factor (22°C) k'” value in series [1] is 4.4810. Besides, the chromatographic logP in series [1] was 0.651. For the same compound, the half-life was 3140 h in series [2] (buffer, pH 4.2); 1650 h in series [2] (buffer, pH 6); 655 h in series [2] (buffer, pH 7.4); 70 h in series [2] (buffer, pH 9); 0.467 h in series [4] (pH 7.4). Besides, the “Degradation coefficient (k) in plasma (80%), 37°C” value in series [4] (pH 7.4) came out at 0.02487 min⁻¹. Besides, the pKa in series [3] came out at 6.

In the case of `CC[C@H](C(=O)OCc1ccccc1)[C@H](COC(=O)CCCC(=O)OC[C@H](Cc1cncn1C)[C@H](CC)C(=O)OCc1ccccc1)Cc1cncn1C` [Example 16, O,O'-Glutaryl (dibenzyl) bispilocarpate], in series [1] (setting [9]), the “Partition coefficient log P” value was 5.4093^2. Moreover, the chromatographic logP in series [1] was 0.576. The half-life is 2200 h in series [2] (setting [5]); 43 h in series [2] (setting [6]); 4190 h in series [2] (setting [7]); 757 h in series [2] (setting [8]); 0.233 h in series [4] (pH 7.4). In addition, in series [4] (pH 7.4), the “Degradation coefficient (k) in plasma (80%), 37°C” value came to 0.05044 min⁻¹. The pKa in series [3] is 6.

For `CC[C@H](C(=O)OCc1ccccc1)[C@H](COC(=O)CCC(=O)OC[C@H](Cc1cncn1C)[C@H](CC)C(=O)OCc1ccccc1)Cc1cncn1C` [Example 17, O,O'-Succinyl (dibenzyl) bispilocarpate], in series [1] (pH 7.4), the “Partition coefficient log P” value was 5.2038^2. Also, the “Capacity factor (22°C) k'” value in series [1] came out at 3.4557. For the same compound, the chromatographic logP in series [1] is 0.539. The half-life in series [2] (buffer, pH 4.2) was 4760 h; in series [2] (buffer, pH 6), 2550 h; in series [2] (buffer, pH 7.4), 251 h; in series [2] (buffer, pH 9), 28 h; in series [4] (pH 7.4), 3.13 h. In series [4] (pH 7.4), the “Degradation coefficient (k) in plasma (80%), 37°C” value worked out at 0.00368 min⁻¹. Moreover, the pKa in series [3] was found to be 6.

For `CC[C@H](C(=O)OCc1ccccc1)[C@H](COC(=O)/C=C/C(=O)OC[C@H](Cc1cncn1C)[C@H](CC)C(=O)OCc1ccccc1)Cc1cncn1C` [Example 18, O,O'-Fumaroyl (dibenzyl) bispilocarpate], in series [1] (pH 7.4), the “Partition coefficient log P” value is recorded as 5.7137^2. The “Capacity factor (22°C) k'” value in series [1] is 4.2785. Further, the chromatographic logP in series [1] is 0.631. Moreover, the half-life in series [2] (buffer, pH 4.2) is 834 h; in series [2] (buffer, pH 6), 49 h; in series [2] (buffer, pH 7.4), 6 h; in series [2] (buffer, pH 9) it was 0.4 h; in series [4] (pH 7.4) it was 2.78 h. The “Degradation coefficient (k) in plasma (80%), 37°C” value in series [4] (pH 7.4) worked out at 0.00415 min⁻¹. Also, in series [3], the pKa was 6.05.

Consider `CCCCCCCC(=O)OC[C@H](Cc1cncn1C)[C@H](CC)C(=O)OCc1ccccc1` [octanoyl, benzyl, reference compound], for which the half-life in series [4] (setting [10]) worked out at 0.45 h. For the same compound, in series [4] (setting [11]), the “Degradation coefficient (k) in plasma (80%), 37°C” value was 0.02556 min⁻¹.

For the compound `CC[C@H](C(=O)OCc1ccccc1)[C@H](CO)Cc1cncn1C` [pilocarpic acid benzyl ester], in series [1], the chromatographic logP is -0.116. Also, the pKa in series [3] turned out to be 6.5.
